Experimental data published in patent publication US10947188B2, “Small molecule ferroptosis inducers” (THE TRUSTEES OF COLUMBIA UNIVERSITY IN THE CITY OF NEW YORK, priority 2016, dated 2021).
Read-outs that look alike come from different tables or passages of the source.

Tested on: HT-1080
Assay: Modulatory profiling: Alamar Blue viability, lethal compound cotreated with death modulator (EC50, AUC); for AUC HT.BHA: reference of the scale not given here; for AUC HT.EGTA: reference of the scale not given here
Format: cell-based
Parameters: AUC, modulator HT.3MA / AUC, modulator HT.ALLN / AUC HT.ATA / AUC HT.ActD / AUC HT.BHA / AUC HT.BHT / AUC HT.BocD / AUC HT.CHX / AUC HT.Co2+ / AUC HT.DPQ / AUC HT.EGTA / AUC HT.Lmim / AUC HT.NAD+ / AUC HT.Nec-1 / AUC HT.SP600125 / AUC HT.TLCK / AUC HT.U0126: unit not given beside the values
Conditions: for AUC HT.ATA: HT-1080, modulator ATA; for AUC HT.ActD: HT-1080, modulator ActD; for AUC HT.BHA: HT-1080, modulator BHA; for AUC HT.BHT: HT-1080, modulator BHT; for AUC HT.BocD: HT-1080, modulator BocD; for AUC HT.CHX: HT-1080, modulator CHX; for AUC HT.Co2+: HT-1080, modulator Co2+; for AUC HT.CspA: HT-1080, modulator CspA; for AUC HT.DPQ: HT-1080, modulator DPQ; for AUC HT.Gd3+: HT-1080, modulator Gd3+; for AUC HT.LNAME: HT-1080, modulator LNAME; for AUC HT.Lmim: HT-1080, modulator Lmim; for AUC HT.NAD+: HT-1080, modulator NAD+; for AUC HT.NMMA: HT-1080, modulator NMMA; for HT.atoc (AUC) / HT.bCarotene (AUC) / HT.deferox (AUC) / HT.digoxin (AUC) / HT.trolox (AUC) / HT.zVAD (AUC): HT-1080; for HT.atoc (AUC): modulator atoc; for HT.bCarotene (AUC): modulator bCarotene; for HT.deferox (AUC): modulator deferox; for HT.digoxin (AUC): modulator digoxin; for HT.trolox (AUC): modulator trolox; for HT.zVAD (AUC): modulator zVAD; for AUC, modulator HT.3MA / AUC, modulator HT.ALLN: HT-1080 cells, modulatory profile value (AUC); for AUC, modulator HT.3MA: lethal compound cotreated with modulator 3MA; for AUC, modulator HT.ALLN: lethal compound cotreated with modulator ALLN

SMILES	AUC HT.ATA	AUC HT.ActD	AUC HT.BHA	AUC HT.BHT	AUC HT.BocD	AUC HT.CHX	AUC HT.Co2+	AUC HT.CspA	AUC HT.DPQ	AUC HT.Gd3+	AUC HT.LNAME	AUC HT.Lmim	AUC HT.NAD+	AUC HT.NMMA	HT.atoc (AUC)	HT.bCarotene (AUC)	HT.deferox (AUC)	HT.digoxin (AUC)	HT.trolox (AUC)	HT.zVAD (AUC)	other results
Cc1cccnc1Nc1nc(-c2ccccn2)cs1 [CIL13]	0.04672	−0.04327	−0.06288	−0.104	0.09941	0.03999	0.2924	0.06243	−0.01515	−0.03072	−0.07962	−0.06102	−0.04462	−0.04118	0.1029	0.01006	0.05411	0.03512	−0.03975	0.01164	AUC HT.EGTA (HT-1080, modulator EGTA): 0.08353; AUC, modulator HT.3MA: 0.02535; AUC, modulator HT.ALLN: 0.01646; effect of cobalt (II) on lethality (modulatory profiles, CoCl2 supplementation): inhibited by cobalt (II)
CCCS(=O)(=O)c1nnnn1-c1cccc(OC)c1 [CIL15]	−0.002809	0.01242	−0.03993	−0.1489	0.1021	0.06342	0.1397	−0.007032	−0.02394	−0.03881	0.001309	−0.04837	0.01762	−0.01943	0.1224	−0.003906	0.04237	−0.01238	−0.02956	−0.04682	AUC HT.EGTA (HT-1080, modulator EGTA): −0.0006158; AUC, modulator HT.3MA: 0.0263; AUC, modulator HT.ALLN: 0.0001245
C[S+]([O-])c1nc(-c2ccc(Br)cc2)cc(-c2ccccc2)c1C#N (stereo not drawn) [CIL17]	−0.0157	−0.03982	−0.02052	−0.138	0.0313	0.06579	−0.008436	−0.03354	−0.02303	−0.04318	0.02242	−0.0132	0.04423	−0.02639	0.145	−0.005211	0.02894	−0.003189	0.004595	0.008536	AUC HT.EGTA (HT-1080, modulator EGTA): 0.001857; AUC, modulator HT.3MA: 0.01558; AUC, modulator HT.ALLN: 0.03631
CCCCNc1cc(C)nc(NCc2ccccc2)n1 [CIL18]	0.001415	0.0184	−0.08703	−0.1394	0.06607	0.1179	0.1598	−0.04827	−0.01276	−0.03302	0.01329	−0.004987	0.09493	−0.02918	0.1295	−0.0001406	−0.009951	−0.004198	−0.01205	0.0101	AUC HT.EGTA (HT-1080, modulator EGTA): −0.009461; AUC, modulator HT.3MA: 0.01461; AUC, modulator HT.ALLN: 0.07303
Cc1cccc(-n2ncc(Cl)c(Cl)c2=O)c1 [CIL22]	0.05908	−0.02402	0.001925	−0.05238	0.008628	0.01938	−0.03478	−0.03611	−0.00934	−0.004534	0.04608	0.01659	0.01014	0.01444	0.04912	−0.01174	0.06507	0.05675	−0.004921	0.02835	AUC HT.EGTA: −0.01254; AUC, modulator HT.3MA: −0.01606; AUC, modulator HT.ALLN: 0.02849
COc1nn(-c2ccccc2)c(=O)c(Cl)c1Cl [CIL23]	0.01792	0.01969	0.00702	−0.02762	−0.01259	0.08773	0.03316	−0.02326	0.01052	−0.000221	0.005628	0.01608	−0.0002222	−0.001084	0.03663	−0.001122	0.1512	0.03673	0.004402	0.02043	AUC HT.EGTA (HT-1080, modulator EGTA): −0.01323; AUC, modulator HT.3MA: 0.01609; AUC, modulator HT.ALLN: 0.001521
O=c1c(Cl)c(Cl)cnn1-c1ccc(Cl)c(C(F)(F)F)c1 [CIL25]	0.06489	−0.03585	−0.01547	−0.1041	0.05183	−0.01604	−0.06128	0.01073	0.02629	0.01713	0.02663	0.01684	−0.03051	−0.006639	0.04405	0.009082	0.07763	−0.007149	−0.02562	0.03342	AUC HT.EGTA (HT-1080, modulator EGTA): 0.01624; AUC, modulator HT.3MA: 0.01605; AUC, modulator HT.ALLN: −0.0257
